Test results: patent US9725432B2, “Pyrimidine derivatives for the treatment of bacterial diseases” (JANSSEN R&D IRELAND, priority 2012, dated 2017)
Values after ≈ are worked out from the molar mass of the structure shown.

Key:
Cytotoxicity MTT assay = type: cell-based; conditions: human, HelaM cells, concentration that causes 50% reduction in cell viability
Protocol: Cytotoxicity of the compounds was evaluated using the MTT assay. Human HelaM cells grown in 96-well plates were exposed to serial dilutions of the tested compounds (final volume of 0.2 ml) and incubated for 72 hours at 37° C. and 5% CO2 Inhibitors are typically varied over the range of 25 to 0.8 μM. The final DMSO concentration in the assay is 0.5%. MTT (3-(4,5-Dimethylthiazol-2-yl)-2,5-diphenyltetrazolium bromide, a tetrazole) was added and reduced to purple formazan only in living cells. Solubilization of the formazan crystals was achieved by adding 100 μl 2-propanol. Cell viability was determined by measuring the absorbance of the reduced formazan, giving a purple color, at 540 nm and 690 nm. The absorbance measured at 690 nm was automatically subtracted from the absorbance at 540 nm, to eliminate the effects of non-specific absorption. The percent cytotoxicity achieved by the compounds was calculated according to standard methods. Cytotoxicity is reported as CC50, the concentration that causes a 50% reduction in cell viability.

Staphylococcus aureus = assay: Antibacterial susceptibility testing: IC90 determination (broth microdilution, resazurin fluorescence); type: cell-based; conditions: 90% inhibitory concentration for bacterial growth, Mueller Hinton broth, 35° C., 16-20 hours, strain not given
Protocol: Preparation of Bacterial Suspensions for Susceptibility Testing
The following bacteria were used: Staphylococcus aureus ATCC 29213, methicillin-resistant Staphylococcus aureus (MRSA) ATCC 700788 and Escherichia coli ATCC 35218. The bacteria used in this study were grown overnight in flasks containing 100 ml Mueller-Hinton broth (Difco cat. nr. 0757-17) in sterile de-ionized water, with shaking, at 37° C. Stocks were store at −70° C. until use.
Bacteria were incubated on a tryptic soy agar plate containing 5% sheep blood (Becton Dickinson cat. nr. 254053) for 18-24 hours at 35° C. in aerobic conditions (first passage). For the second passage, fresh Mueller-Hinton broth is inoculated with 5-10 colonies and grown overnight at 35° C. until turbidity (reaching log-phase) in aerobic conditions is reached. The bacterial suspension is then adjusted to 0.5 McFarland density and further diluted 1:100 in Mueller Hinton broth medium. This is used as inoculum.
Antibacterial Susceptibility Testing: IC90 Determination
MIC assays were performed by the broth microdilution method in a 96-well format (flat-bottom microtitre plates) with a final volume of 0.1 ml Mueller Hinton broth containing two-fold serial dilutions of compounds and inoculated with 5×10^5 CFU/ml of bacteria (standard inoculum size according to CLSI guidelines). Inhibitors are typically varied over the range of 63 to 0.49 μM. The final DMSO concentration in the assay was 1.25% (maximum tolerable DMSO concentration=6%). In the assays where the effect of human serum on the activity of the compounds against S. aureus was tested, human serum was added at a final concentration of 10%. The plates were incubated at 35° C. for 16-20 hours. At the end of incubation the bacterial growth was quantified fluorometrically. For this, resazurin was added to all wells and the plates were re-incubated. The incubation time is dependent on the type of bacteria. A change in color from blue to pink indicated the growth of bacteria. The fluorescence was read in computer-controlled fluorometer (Fluoroskan Ascent FL, Labsystems) at an excitation wavelength 540 nm and an emission wavelength of 590 nm. The % growth inhibition achieved by the compounds was calculated according to standard methods. The IC90 (expressed in μg/ml) was defined as the 90% inhibitory concentration for bacterial growth. A panel of reference compounds were simultaneously tested for QC approval.

SMILES | CC50 at 72 h (Cytotoxicity MTT assay) [µg/mL] | melting point [°C] | IC90 (Staphylococcus aureus) [µg/mL]
CC(C)(C)CN1CCCC(c2nc(-c3cccnc3)ncc2-c2cccc(C#N)c2)C1 (stereo not shown) [Compound 62] | > 10.3 | 57 to 113 | > 25.9
COc1cccc(-c2cnc(-c3ccncc3)nc2C2CCN(Cc3ccco3)CC2)c1 [Compound 18] | > 10.7 | 120 | 13 (≈ 30.5 µM)
COc1cccc(-c2cnc(-c3ccncc3)nc2C2CCN(CC(F)F)CC2)c1 [Compound 56] | > 10.3 | 123 | 1.49 (≈ 3.63 µM)
Cc1cccc(-c2cnc(-c3ccncc3)nc2C2CCN(Cc3cc(Cl)ccc3O)CC2)c1 [Compound 13] | 5.2 (≈ 11 µM) | 180 to 181 | 1.71 (≈ 3.63 µM)
COc1cccc(-c2cnc(-c3cccnc3)nc2C2CCN(CC(C)(C)C)CC2)c1 [Compound 24] | > 11.4 | 222 to 224 | 1.68 (≈ 4.03 µM)
COc1cccc(-c2cnc(-c3ccncc3)nc2C2CCN(Cc3ccccc3C(F)(F)F)CC2)c1 [Compound 46] | 4.2 (≈ 8.32 µM) | 144 | 4.1 (≈ 8.13 µM)
N#Cc1cccc(-c2cnc(-c3ccncc3)nc2C2CCCN(CC(F)(F)F)C2)c1 (stereo not shown) [Compound 59] | > 10.6 | 163 to 164 | > 26.7
COc1cccc(-c2cnc(-c3cccnc3)nc2C2CCN(C(=O)C(C)Oc3ccccc3)CC2)c1 (stereo not shown) [Compound 27] | 7.1 (≈ 14.4 µM) | 138 to 140 | 9.1 (≈ 18.4 µM)
CC(C)(C)CN1CCC(c2nc(C(F)(F)F)ncc2-c2cccc(C#N)c2)CC1 [Compound 64] | > 10.1 | 114 to 116 | 1.46 (≈ 3.63 µM)
CN(C)c1cccc(-c2cnc(-c3ccncc3)nc2C2CCN(CC(C)(C)C)CC2)c1 [Compound 37] | 9.2 (≈ 21.4 µM) | 140 to 142 | 3.04 (≈ 7.08 µM)
COc1cccc(-c2cnc(-c3ccncc3)nc2C2CCN(Cc3ccsc3)CC2)c1 [Compound 4] | > 11.1 | 135 | 12.9 (≈ 29.2 µM)
CC(C)(C)CN1CCC(c2nc(-c3ccc(C#N)cc3)ncc2-c2cccc(C#N)c2)CC1 [Compound 65] | > 4.4 | 247 to 249 | 0.13 (≈ 0.298 µM)
Cc1cccc(-c2cnc(-c3ccncc3)nc2C2CCN(CC(C)(C)C)CC2)c1 [Compound 15] | > 10.1 | 123 to 127 | 1.49 (≈ 3.72 µM)
CC1(CN2CCC(c3nc(-c4ccncc4)ncc3-c3cccc(C#N)c3)CC2)COC1 [Compound 72] |  |  | 25.9 (≈ 61 µM)
COc1cccc(-c2cnc(-c3ccncc3)nc2C2CCN(CC(F)(F)F)CC2)c1 [Compound 55] | 6.3 (≈ 14.7 µM) |  | 0.39 (≈ 0.91 µM)
CN(C)c1ncc(-c2ccccc2F)c(C2CCN(CC(C)(C)C)CC2)n1 [Compound 51] | 7.8 (≈ 21.1 µM) |  | 13.4 (≈ 36.3 µM)
COc1cccc(-c2cnc(-c3ccncc3)nc2C2CCN(Cc3ccc(F)cc3F)CC2)c1 [Compound 32] | 5.5 (≈ 11.6 µM) | 138 | 3.27 (≈ 6.92 µM)
CC(C)(C)CN1CCC(c2nc(-c3ccncc3)ncc2-c2cccc(C(F)(F)F)c2)CC1 [Compound 40] | 7 (≈ 15.4 µM) | 112 to 114 | 0.52 (≈ 1.14 µM)
COc1cccc(-c2cnc(-c3ccncc3)nc2C2CCN(Cc3ccccc3O)CC2)c1 [Compound 10] | 9.9 (≈ 21.9 µM) | 142 to 146 | 1.68 (≈ 3.71 µM)
COc1cccc(-c2cnc(-c3ccncc3)nc2C2CCN(Cc3ccc(F)cc3)CC2)c1 [Compound 29] | 8.5 (≈ 18.7 µM) | 152 | 3.45 (≈ 7.59 µM)
COc1cccc(-c2cnc(-c3ccncc3)nc2C2CCN(Cc3cccc(C#N)c3)CC2)c1 [Compound 31] | 4.2 (≈ 9.1 µM) | 140 | 7.32 (≈ 15.9 µM)
CC(C)(C)CN1CCC(c2nc(-c3ccncc3)ncc2-c2cccc(Cl)c2)CC1 [Compound 39] | 7.3 (≈ 17.3 µM) | 119 to 121 | 0.76 (≈ 1.81 µM)

SMILES | CC50 at 72 h (Cytotoxicity MTT assay) [µg/mL] | melting point [°C] | IC90 (Staphylococcus aureus) [µg/mL]
COc1cccc(-c2cnc(-c3ccncc3)nc2C2CCN(CC(C)(F)F)CC2)c1 [Compound 70] | 6.7 (≈ 15.8 µM) |  | 0.64 (≈ 1.51 µM)
COc1cccc(-c2cnc(-c3ccncc3)nc2C2CCN(Cc3cccc(C)c3)CC2)c1 [Compound 33] | 7.6 (≈ 16.9 µM) | 160 | 13.2 (≈ 29.2 µM)
COc1cccc(-c2cnc(-c3ccncc3)nc2C2CCN(CC(C)(C)C)CC2)c1 [Compound 6] | > 10.5 | 118 | 1.05 (≈ 2.52 µM)
N#Cc1cccc(-c2cnc(-c3cccnc3)nc2C2CCCN(CC(F)(F)F)C2)c1 (stereo not shown) [Compound 60] | > 10.6 | 52 to 92 | > 26.7
COc1cccc(-c2cnc(-c3ccncc3)nc2C2CCN(Cc3cc(Cl)ccc3O)CC2)c1 [Compound 5] | 6.3 (≈ 12.9 µM) | 227 to 228 | 2.1 (≈ 4.31 µM)
Cc1ccc(-c2cnc(-c3ccncc3)nc2C2CCN(CC(C)(C)C)CC2)cc1 [Compound 38] | > 4 | 170 to 171 | 5.04 (≈ 12.6 µM)
CC(C)(C)CN1CCC(c2nc(-c3cccnc3)ncc2-c2cccc(C#N)c2)CC1 [Compound 69] | > 10.3 | 148 to 150 | 3.02 (≈ 7.34 µM)
COc1cccc(-c2cnc(-c3ccncc3)nc2C2CCN(Cc3cc(F)cc(F)c3)CC2)c1 [Compound 48] | 2.2 (≈ 4.66 µM) | 181 | 3.16 (≈ 6.69 µM)
COc1cccc(-c2cnc(-c3ccncc3)nc2C2CCN(Cc3cccc(C(F)(F)F)c3)CC2)c1 [Compound 28] | 4.7 (≈ 9.32 µM) | 156 | 5.28 (≈ 10.5 µM)
COc1cccc(-c2cnc(-c3ccncc3)nc2C2CCN(Cc3ccc(Cl)cc3O)CC2)c1 [Compound 9] | 5.9 (≈ 12.1 µM) | 119 to 123 | 0.97 (≈ 1.99 µM)
CC(C)(C)CN1CCC(c2nc(-c3cncnc3)ncc2-c2cccc(C#N)c2)CC1 [Compound 68] | > 10.4 | 163 to 170 | 6.1 (≈ 14.8 µM)
Cc1ccccc1-c1cnc(-c2ccncc2)nc1C1CCN(CC(C)(C)C)CC1 [Compound 50] | > 4 | 208 | 9.61 (≈ 24 µM)
COc1cccc(-c2cnc(-c3ccncc3)nc2C2CCN(Cc3ccccc3F)CC2)c1 [Compound 41] | 7.7 (≈ 16.9 µM) | 139 | 8.66 (≈ 19.1 µM)
COc1cccc(-c2cnc(-c3ccncc3)nc2C2CCN(CC3CCCCC3)CC2)c1 [Compound 17] | > 11.1 | 130 | 13.4 (≈ 30.2 µM)
C/C=C(\C)CN1CCC(c2nc(-c3ccncc3)ncc2-c2cccc(OC)c2)CC1 [Compound 2] |  |  | 13.7 (≈ 33.1 µM)
COc1cccc(-c2cnc(-c3ccc(F)cc3)nc2C2CCN(CC(F)(F)F)CC2)c1 [Compound 71] |  |  | < 0.22
COc1cccc(-c2cnc(-c3ccncc3)nc2C2CCN(C(=O)C(C)Oc3ccccc3)CC2)c1 (stereo not shown) [Compound 20] | 8.1 (≈ 16.4 µM) |  | 7.15 (≈ 14.5 µM)
COc1cccc(-c2cnc(-c3ccncc3)nc2C2CCN(Cc3sccc3C)CC2)c1 [Compound 1] |  |  | 8.5 (≈ 18.6 µM)
Oc1ccccc1CN1CCC(c2nc(-c3cccnc3)ncc2-c2ccccc2)CC1 [Compound 7] |  |  | 14.3 (≈ 33.9 µM)
CC(C)(C)CN1CCCC(c2nc(-c3ccncc3)ncc2-c2cccc(C#N)c2)C1 (stereo not shown) [Compound 61] | > 10.3 |  | > 25.9
COc1ccc(-c2cnc(N(C)C)nc2C2CCN(CC(C)(C)C)CC2)cc1 [Compound 53] | 7.5 (≈ 19.6 µM) |  | 5.47 (≈ 14.3 µM)
CN(C)c1ncc(-c2cccc(Cl)c2)c(C2CCN(CC(C)(C)C)CC2)n1 [Compound 52] | 6.7 (≈ 17.3 µM) |  | 1.28 (≈ 3.31 µM)
